Data taken from patent US10448639B2, “Fungicidal pyrazoles” (FMC CORPORATION, priority 2009, dated 2019).
Marks after values point to notes of the source that are not given here.

What was measured:
[1] = system: Erysiphe graminis f sp. tritici; assay: Test J: wheat powdery mildew, preventive spray on wheat seedlings, visual disease rating; settings: for Test J rating (% disease control) / Test J disease control rating: 100 = 100% disease control; for pest or weed control at 200 µg/mL: Blumeria graminis, in Triticum aestivum, 192 h, read-out: Test J rating (% disease control); for Test J disease control rating: sprayed the day before inoculation, 0 = no disease control relative to controls
Septoria nodorum = assay: Test F: Septoria glume blotch, preventive spray on wheat seedlings, visual disease rating; settings: for Test F rating (% disease control) / Test F disease control rating: 100 = 100% disease control; for pest or weed control at 200 µg/mL: Parastagonospora nodorum, in Triticum aestivum, 192 h, read-out: Test F rating (% disease control); for Test F disease control rating: 0 = no disease control relative to controls
Septoria tritici = assay: Test G: wheat leaf blotch, preventive spray on wheat seedlings, visual disease rating; settings: for Test G rating (% disease control) / Test G disease control rating: 100 = 100% disease control; for pest or weed control at 200 µg/mL: Zymoseptoria tritici, in Triticum aestivum, 504 h, read-out: Test G rating (% disease control); for Test G disease control rating: sprayed the day before inoculation, 0 = no disease control relative to controls
Alternaria solani = assay: Test C: tomato early blight, preventive spray on tomato seedlings, visual disease rating; settings: for Test C rating (% disease control) / Test C disease control rating: 100 = 100% disease control; for pest or weed control at 200 µg/mL: Alternaria solani, in Solanum lycopersicum, 168 h, read-out: Test C rating (% disease control); for Test C disease control rating: 0 = no disease control relative to controls
[2] = system: Puccinia recondita f. sp. tritici; assay: Test I: wheat leaf rust, preventive spray on wheat seedlings, visual disease rating; settings: for Test I rating (% disease control) / Test I disease control rating: 100 = 100% disease control; for pest or weed control at 200 µg/mL: 192 h, read-out: Test I rating (% disease control); for Test I disease control rating: sprayed the day before inoculation, 0 = no disease control relative to controls
Botrytis cinerea = assay: Test B: tomato Botrytis, preventive spray on tomato seedlings, visual disease rating; settings: for Test B rating (% disease control) / Test B disease control rating: 100 = 100% disease control; for pest or weed control at 200 µg/mL: Botrytis cinerea, in Solanum lycopersicum, 120 h, read-out: Test B rating (% disease control); for Test B disease control rating: 0 = no disease control relative to controls
[3] = system: Puccinia recondita f. sp. tritici; assay: Test H: wheat leaf rust, curative spray on inoculated wheat seedlings, visual disease rating; settings: for Test H rating (% disease control) / Test H disease control rating: 100 = 100% disease control; for pest or weed control at 200 µg/mL: 144 h, read-out: Test H rating (% disease control); for Test H disease control rating: sprayed after inoculation, 0 = no disease control relative to controls
[4] = wheat powdery mildew, preventive spray, 0 = no control
[5] = Septoria glume blotch on wheat, preventive spray, 0 = no control
[6] = wheat leaf blotch, preventive spray, 0 = no control
[7] = tomato early blight, preventive spray, 0 = no control
[8] = wheat leaf rust, preventive spray, 0 = no control
[9] = tomato Botrytis, preventive spray, 0 = no control
[10] = wheat leaf rust, curative spray, 0 = no control
[11] = wheat powdery mildew, 0 = no control relative to controls
[12] = Septoria glume blotch, 0 = no control relative to controls
[13] = wheat leaf blotch, 0 = no control relative to controls
[14] = tomato early blight, 0 = no control relative to controls
[15] = wheat leaf rust, preventive, 0 = no control relative to controls
[16] = tomato Botrytis, 0 = no control relative to controls
[17] = wheat leaf rust, curative, 0 = no control relative to controls

Structure (SMILES) | Test J rating (% disease control) [1, 4] [%] | Test F rating (% disease control) (Septoria nodorum; [5]) [%] | Test G rating (% disease control) (Septoria tritici; [6]) [%] | Test C rating (% disease control) (Alternaria solani; [7]) [%] | Test I rating (% disease control) [2, 8] [%] | Test B rating (% disease control) (Botrytis cinerea; [9]) [%] | Test H rating (% disease control) [3, 10] [%] | further results
Cc1nn(C)c(Nc2ncc(Cl)cc2Cl)c1-c1c(F)cc(F)cc1F [compound 101] | 100 | 100 | 100 | 99 | 99 | 100 | 99 | 
COc1cc(F)c(-c2c(C)nn(C)c2Nc2c(F)cc(C#N)cc2F)c(F)c1 [compound 82] | 13 | 40 | 99 | 100 | 68 | 100 | 0 | 
COc1ccc(Nc2c(-c3c(F)cc(C#N)cc3F)c(C)nn2C)cc1F [compound 113] | 48 | 0 | 100 | 47 | 95 | 99 | 8 | 
COc1cc(F)c(Nc2c(-c3ccc(F)c(F)c3)c(C)nn2C)c(F)c1 [Compound 36, N-(2,6-difluoro-4-methoxyphenyl)-4-(3,4-difluorophenyl)-1,3-dimethyl-1H-pyrazol-5-amine] |  |  |  |  |  |  |  | pest or weed control at 200 µg/mL [1]: 98%; pest or weed control at 200 µg/mL (Septoria nodorum): 0%; pest or weed control at 200 µg/mL (Septoria tritici): 96%; pest or weed control at 200 µg/mL (Alternaria solani): 0%; pest or weed control at 200 µg/mL [2]: 96%; pest or weed control at 200 µg/mL (Botrytis cinerea): 100%; pest or weed control at 200 µg/mL [3]: 0%
Cc1nn(C)c(Nc2cccc(F)c2F)c1-c1c(F)cccc1F [compound 198] |  |  |  |  |  |  |  | Test J rating (% disease control) [1, 11]: 97%; Test F rating (% disease control) (Septoria nodorum; [12]): 0%; Test G rating (% disease control) (Septoria tritici; [13]): 100%; Test C rating (% disease control) (Alternaria solani; [14]): 68%; Test I rating (% disease control) [2, 15]: 94%; Test B rating (% disease control) (Botrytis cinerea; [16]): 97%; Test H rating (% disease control) [3, 17]: 0%
Cc1nn(C)c(Oc2c(F)cc(C#N)cc2F)c1-c1cc(F)ccc1F [compound 329] |  |  |  |  |  |  |  | Test J disease control rating ([1]; wheat powdery mildew): 100%; Test F disease control rating (Septoria nodorum; Septoria glume blotch on wheat): 69%; Test G disease control rating (Septoria tritici; wheat leaf blotch): 100%; Test C disease control rating (Alternaria solani; tomato early blight): 99%; Test I disease control rating ([2]; wheat leaf rust): 100%; Test B disease control rating (Botrytis cinerea; tomato Botrytis): 100%; Test H disease control rating ([3]; wheat leaf rust): 0%
Cc1nn(C)c(Oc2ccc([N+](=O)[O-])cc2)c1-c1c(F)cc(F)cc1F [compound 26] | 100 | 0 | 100 | 83 | 99 | 99 | 0 | 
COc1ccc(-c2c(C)nn(C)c2Oc2ccc(C#N)cc2F)c(Cl)c1 [compound 310] |  |  |  |  |  |  |  | Test J disease control rating ([1]; wheat powdery mildew): 96%; Test F disease control rating (Septoria nodorum; Septoria glume blotch on wheat): 99%; Test G disease control rating (Septoria tritici; wheat leaf blotch): 100%; Test C disease control rating (Alternaria solani; tomato early blight): 99%; Test I disease control rating ([2]; wheat leaf rust): 99%; Test B disease control rating (Botrytis cinerea; tomato Botrytis): 100%; Test H disease control rating ([3]; wheat leaf rust): 0%
Cc1nn(C)c(Nc2ccc(F)cc2Cl)c1-c1c(F)cccc1C(F)(F)F [compound 253] |  |  |  |  |  |  |  | Test J rating (% disease control) [1, 11]: 76%; Test F rating (% disease control) (Septoria nodorum; [12]): 0%; Test G rating (% disease control) (Septoria tritici; [13]): 0%; Test C rating (% disease control) (Alternaria solani; [14]): 0%; Test I rating (% disease control) [2, 15]: 0%; Test B rating (% disease control) (Botrytis cinerea; [16]): 99%; Test H rating (% disease control) [3, 17]: 0%
Cc1nn(C)c(Nc2ccc(C#N)cn2)c1-c1ccc(F)cc1Cl [compound 67] | 86 | 0 | 99 | 0 | 95 | 95 | 24 | 
COc1ccc(Nc2c(-c3c(F)cc(F)cc3F)c(C)nn2C)cn1 [compound 94] | 0 | 29 | 98 | 70 | 9 | 99 | 0 | 
COc1cc(F)c(Nc2c(-c3cccc(F)c3F)c(C)nn2C)c(F)c1 [compound 204] |  |  |  |  |  |  |  | Test J rating (% disease control), marked * ([1]; wheat powdery mildew, rating marked with asterisk (*), meaning not given): 99* %; Test F rating (% disease control), marked * (Septoria nodorum; Septoria glume blotch, rating marked with asterisk (*), meaning not given): 0* %; Test G rating (% disease control), marked * (Septoria tritici; wheat leaf blotch, rating marked with asterisk (*), meaning not given): 99* %; Test C rating (% disease control), marked * (Alternaria solani; tomato early blight, rating marked with asterisk (*), meaning not given): 77* %; Test I rating (% disease control), marked * ([2]; wheat leaf rust, preventive, rating marked with asterisk (*), meaning not given): 86* %; Test B rating (% disease control), marked * (Botrytis cinerea; tomato Botrytis, rating marked with asterisk (*), meaning not given): 100* %; Test H rating (% disease control), marked * ([3]; wheat leaf rust, curative, rating marked with asterisk (*), meaning not given): 0* %
COc1ccc(Nc2c(-c3c(F)cccc3F)c(C)nn2C)c(Cl)c1 [compound 201] |  |  |  |  |  |  |  | Test J rating (% disease control) [1, 11]: 99%; Test F rating (% disease control) (Septoria nodorum; [12]): 20%; Test G rating (% disease control) (Septoria tritici; [13]): 100%; Test C rating (% disease control) (Alternaria solani; [14]): 97%; Test I rating (% disease control) [2, 15]: 97%; Test B rating (% disease control) (Botrytis cinerea; [16]): 99%; Test H rating (% disease control) [3, 17]: 18%
Cc1nn(C)c(Nc2ccc(F)cc2Br)c1-c1ccc(F)cc1Cl [Compound 265, N-(2-bromo-4-fluorophenyl)-4-(2-chloro-4-fluorophenyl)-1,3-dimethyl-1H-pyrazol-5-amine] |  |  |  |  |  |  |  | pest or weed control at 200 µg/mL [1]: 100%; pest or weed control at 200 µg/mL (Septoria nodorum): 78%; pest or weed control at 200 µg/mL (Septoria tritici): 100%; pest or weed control at 200 µg/mL (Alternaria solani): 99%; pest or weed control at 200 µg/mL [2]: 100%; pest or weed control at 200 µg/mL (Botrytis cinerea): 100%; pest or weed control at 200 µg/mL [3]: 90%
COc1cc(F)c(-c2c(C)nn(C)c2Nc2ccc(C)cc2)c(F)c1 [compound 50] | 99 | 0 | 100 | 57 | 98 | 99 | 0 | 
Cc1nn(C)c(Oc2ccc(Cl)cc2Cl)c1-c1c(F)cc(F)cc1F [compound 38] | 99 | 0 | 97 | 9 | 99 | 99 | 0 | 
